According to US20240425518A1, “N-MACROCYCLIC AMIDE COMPOUNDS, PREPARATION METHODS THEREOF AND APPLICATIONS THEREOF AS MEDICAMENTS” (Chengdu FANXI Biopharma Co., Ltd., priority 2023, published 2024):

Columns and labels:
Flt3 (D835Y) (h) = target: T1, Flt3 (D835Y) (h) (Homo sapiens, UniProt P36888, D835Y); assay: Radioisotope labeling kinase assay (Eurofins), Flt3 (D835Y); type: biochemical; details: for activity at 1 µM: 1 μM compound, read-out: Inhibitory activity per unit concentration/Activity % Flt3 (D835Y) (h)
T1 construct: purchased Eurofins
T1 sequence (P36888 27-993 D835Y): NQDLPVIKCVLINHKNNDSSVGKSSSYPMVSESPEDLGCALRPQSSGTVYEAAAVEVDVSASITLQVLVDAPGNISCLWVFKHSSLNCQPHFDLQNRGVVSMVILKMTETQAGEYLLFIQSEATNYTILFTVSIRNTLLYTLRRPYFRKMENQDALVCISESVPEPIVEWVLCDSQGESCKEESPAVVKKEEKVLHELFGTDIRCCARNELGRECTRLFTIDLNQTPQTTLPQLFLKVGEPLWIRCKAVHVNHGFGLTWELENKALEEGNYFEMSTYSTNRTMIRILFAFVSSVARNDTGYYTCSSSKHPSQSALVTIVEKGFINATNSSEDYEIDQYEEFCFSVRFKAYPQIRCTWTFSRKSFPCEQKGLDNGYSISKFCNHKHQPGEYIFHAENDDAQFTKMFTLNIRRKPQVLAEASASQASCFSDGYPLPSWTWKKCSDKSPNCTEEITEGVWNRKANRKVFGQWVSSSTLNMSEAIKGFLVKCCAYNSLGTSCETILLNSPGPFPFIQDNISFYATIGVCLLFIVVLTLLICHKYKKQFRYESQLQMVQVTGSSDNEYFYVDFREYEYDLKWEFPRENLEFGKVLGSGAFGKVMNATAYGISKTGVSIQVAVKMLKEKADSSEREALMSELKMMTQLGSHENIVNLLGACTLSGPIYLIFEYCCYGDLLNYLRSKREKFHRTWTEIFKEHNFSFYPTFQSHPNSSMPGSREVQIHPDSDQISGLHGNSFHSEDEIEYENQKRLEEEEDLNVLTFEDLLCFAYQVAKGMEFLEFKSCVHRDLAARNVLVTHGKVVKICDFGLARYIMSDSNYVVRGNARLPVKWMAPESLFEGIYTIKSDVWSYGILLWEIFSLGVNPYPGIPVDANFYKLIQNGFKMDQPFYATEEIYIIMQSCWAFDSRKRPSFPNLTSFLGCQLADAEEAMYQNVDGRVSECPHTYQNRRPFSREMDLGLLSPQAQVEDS
Method: (§1) An activity to a human recombinant protein kinase of a series of compounds was determined by a radioisotope labeling method, which was provided by Eurofins Company. A compound to be detected was mixed with a corresponding protein kinase buffer (20 mM propyl sulfonate (MOPS, […].), 1 mM EDTA, 0.10 β-mercaptoethanol, 0.010 Brij-35, […], and 1 mg/mL BSA), the mixture was added into a reaction system (100 μM reaction substrate […], 8 mM MOPS with a pH value of 7.0, 10 mM MgAcetate, 0.2 mM EDTA, and a certain concentration of γ-^33P-ATP). After adding an MgATP composite solution, the reaction was started at room temperature for 40 minutes, and the reaction was terminated by adding 5 μl of […] solution. Then, 10 μl of reaction solution was dropwise added onto a filter and washed with 75 mM phosphoric acid solution for three times, 5 minutes each time, then washed with methanol once again, and dried and subjected to scintillation counting.

KDR (h) = target: T2, KDR (h) (Homo sapiens, UniProt P35968); assay: Radioisotope labeling kinase assay (Eurofins), KDR; type: biochemical
T2 construct: purchased Eurofins
Method: as §1

Ab1 (h) = target: T3, Ab1 (h) (Homo sapiens, UniProt P00519); assay: Radioisotope labeling kinase assay (Eurofins), Ab1; type: biochemical; details: for activity at 1 µM: 1 μM compound, read-out: Inhibitory activity per unit concentration/Activity % Ab1 (h)
T3 construct: purchased Eurofins
Method: as §1

Ret (h) = target: T4, Ret (h) (Homo sapiens, UniProt P07949); assay: Radioisotope labeling kinase assay (Eurofins), Ret; type: biochemical
T4 construct: purchased Eurofins
Method: as §1

EGFR (T790M, L858R) (h) = target: T5, EGFR (T790M, L858R) (h) (Homo sapiens, UniProt P00533, L858R/T790M); assay: Radioisotope labeling kinase assay (Eurofins), EGFR (T790M, L858R); type: biochemical
T5 construct: purchased Eurofins
Method: as §1

[1] = system: MV4-11 Human acute myelogenous leukemia; assay: MTT cell proliferation inhibition, MV4-11; type: cell-based; details: MV4-11, 72 hours
Method: (§2) Human cancer cells were purchased from ATCC. The cells were cultured in a culture medium according to the work instruction of ATCC. A dose-response curve was drawn by XL-fitting to determine an IC50 value of a compound. […] Cell proliferation inhibition could be detected by a MTT method (3-(4,5-Dimethylthiazol-2-yl)-2,5-diphenyltetrazolium bromide, and MTT; and 3-(4,5-dimethyl thiazole-2)-2,5-diphenyltertazolium bromide, and thiazolyl blue).
(§3) The cells were cultured in a culture dish first, and the cells in a logarithmic growth phase were inoculated into a 96-well plate (3,000 to 5,000 adherent cells/well, 10,000 to 30,000 suspended cells/well) according to a specific number, with 100 microliters per well, and then cultured in an incubator of 5% CO2 and 37° C. […] An absorbance of a general control group should be a normal value between 0.8 and 1.2. After obtaining absorbance data, a change curve of an inhibition rate was fitted by GraphPad Prism6.03 software and an IC50 value was calculated.
(§4) Calculation of drug inhibition rate: relative cell proliferation inhibition rate=[(control group A570−experimental group A570)/control group […], wherein A570 represented the absorbance at 570 nm.

MM1S Human myeloma cells = assay: MTT cell proliferation inhibition, MM1S; type: cell-based; details: MM1.S, 72 hours
Method: as §2, §3, §4

[2] = system: Karpas-299 Human anaplastic large cell lymphoma cells; assay: MTT cell proliferation inhibition, Karpas-299; type: cell-based; details: Karpas-299, 72 hours
Method: as §2, §3, §4

[3] = system: Aspc-1 Human pancreatic cancer cells; assay: MTT cell proliferation inhibition, Aspc-1; type: cell-based; details: ASPC1, Aspc-1, 72 hours
Method: as §2, §3, §4

U266 Human myeloma cells = assay: MTT cell proliferation inhibition, U266; type: cell-based; details: U-266, U266, 72 hours
Method: as §2, §3, §4

[4] = system: HL-60 Human acute myelogenous leukemia; assay: MTT cell proliferation inhibition, HL-60; type: cell-based; details: HL-60, 72 hours
Method: as §2, §3, §4

[5] = system: RPMI 8226 Human myeloma cells; assay: MTT cell proliferation inhibition, RPMI 8226; type: cell-based; details: RPMI 8226, 72 hours
Method: as §2, §3, §4

[6] = system: MGC-803 Human gastric cancer cells; assay: MTT cell proliferation inhibition, MGC-803; type: cell-based; details: MGC-803, 72 hours
Method: as §2, §3, §4

T4 sequence (P07949 29-1114): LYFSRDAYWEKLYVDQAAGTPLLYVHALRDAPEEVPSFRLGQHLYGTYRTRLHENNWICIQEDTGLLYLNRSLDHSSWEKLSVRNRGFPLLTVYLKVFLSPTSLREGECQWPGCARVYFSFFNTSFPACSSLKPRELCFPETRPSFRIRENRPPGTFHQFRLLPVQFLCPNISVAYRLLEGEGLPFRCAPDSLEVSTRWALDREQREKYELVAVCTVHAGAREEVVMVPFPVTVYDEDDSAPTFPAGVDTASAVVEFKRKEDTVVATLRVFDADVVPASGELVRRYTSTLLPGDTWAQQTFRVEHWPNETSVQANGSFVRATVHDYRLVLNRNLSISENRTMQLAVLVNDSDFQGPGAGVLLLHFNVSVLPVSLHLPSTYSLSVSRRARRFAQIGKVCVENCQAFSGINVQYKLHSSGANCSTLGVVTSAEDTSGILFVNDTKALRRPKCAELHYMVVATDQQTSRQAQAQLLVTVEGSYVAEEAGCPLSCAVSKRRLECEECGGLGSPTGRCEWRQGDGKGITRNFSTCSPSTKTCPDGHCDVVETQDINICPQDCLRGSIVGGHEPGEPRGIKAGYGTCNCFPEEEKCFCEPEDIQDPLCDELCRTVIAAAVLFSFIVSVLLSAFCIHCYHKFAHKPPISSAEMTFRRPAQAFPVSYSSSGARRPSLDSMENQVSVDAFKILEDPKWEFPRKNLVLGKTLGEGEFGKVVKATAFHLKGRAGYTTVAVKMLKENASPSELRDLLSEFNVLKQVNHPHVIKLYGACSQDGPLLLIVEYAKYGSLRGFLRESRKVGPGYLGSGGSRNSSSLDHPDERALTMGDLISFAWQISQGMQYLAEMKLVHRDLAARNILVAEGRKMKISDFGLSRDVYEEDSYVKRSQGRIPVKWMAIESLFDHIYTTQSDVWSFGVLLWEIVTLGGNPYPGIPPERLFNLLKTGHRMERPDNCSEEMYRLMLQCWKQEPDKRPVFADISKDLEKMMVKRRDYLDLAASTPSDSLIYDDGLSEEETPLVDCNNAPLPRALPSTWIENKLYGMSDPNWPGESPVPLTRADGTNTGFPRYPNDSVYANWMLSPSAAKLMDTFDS
T3 sequence (P00519 whole entry): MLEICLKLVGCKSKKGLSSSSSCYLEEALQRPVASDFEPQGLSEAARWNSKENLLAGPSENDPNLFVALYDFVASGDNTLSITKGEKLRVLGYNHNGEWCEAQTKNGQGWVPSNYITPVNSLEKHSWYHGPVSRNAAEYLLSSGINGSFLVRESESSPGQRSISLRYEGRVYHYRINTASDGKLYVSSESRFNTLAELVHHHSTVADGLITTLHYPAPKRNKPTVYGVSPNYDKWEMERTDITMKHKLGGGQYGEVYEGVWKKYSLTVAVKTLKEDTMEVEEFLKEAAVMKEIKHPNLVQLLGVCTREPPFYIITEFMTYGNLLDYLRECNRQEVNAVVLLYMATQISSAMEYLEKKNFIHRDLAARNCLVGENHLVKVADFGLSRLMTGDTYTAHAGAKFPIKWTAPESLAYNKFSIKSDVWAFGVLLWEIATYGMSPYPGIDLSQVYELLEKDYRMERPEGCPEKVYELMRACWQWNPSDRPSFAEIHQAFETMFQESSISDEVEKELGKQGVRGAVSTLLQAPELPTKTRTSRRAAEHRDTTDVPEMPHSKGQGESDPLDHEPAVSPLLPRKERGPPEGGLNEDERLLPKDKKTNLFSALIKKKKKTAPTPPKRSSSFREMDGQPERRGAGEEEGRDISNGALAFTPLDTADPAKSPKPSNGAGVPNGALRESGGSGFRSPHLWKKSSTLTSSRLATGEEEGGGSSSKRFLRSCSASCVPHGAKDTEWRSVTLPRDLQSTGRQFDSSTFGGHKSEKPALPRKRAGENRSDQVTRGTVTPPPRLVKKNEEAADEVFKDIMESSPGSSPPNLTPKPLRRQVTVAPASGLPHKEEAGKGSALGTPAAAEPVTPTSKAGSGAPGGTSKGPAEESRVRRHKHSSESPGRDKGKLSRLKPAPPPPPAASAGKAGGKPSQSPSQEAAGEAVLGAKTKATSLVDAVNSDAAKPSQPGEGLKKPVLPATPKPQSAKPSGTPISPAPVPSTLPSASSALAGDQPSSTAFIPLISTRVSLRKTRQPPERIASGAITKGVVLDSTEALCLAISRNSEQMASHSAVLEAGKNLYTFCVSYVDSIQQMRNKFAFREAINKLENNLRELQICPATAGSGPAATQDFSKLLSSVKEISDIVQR
T2 sequence (P35968 20-1356): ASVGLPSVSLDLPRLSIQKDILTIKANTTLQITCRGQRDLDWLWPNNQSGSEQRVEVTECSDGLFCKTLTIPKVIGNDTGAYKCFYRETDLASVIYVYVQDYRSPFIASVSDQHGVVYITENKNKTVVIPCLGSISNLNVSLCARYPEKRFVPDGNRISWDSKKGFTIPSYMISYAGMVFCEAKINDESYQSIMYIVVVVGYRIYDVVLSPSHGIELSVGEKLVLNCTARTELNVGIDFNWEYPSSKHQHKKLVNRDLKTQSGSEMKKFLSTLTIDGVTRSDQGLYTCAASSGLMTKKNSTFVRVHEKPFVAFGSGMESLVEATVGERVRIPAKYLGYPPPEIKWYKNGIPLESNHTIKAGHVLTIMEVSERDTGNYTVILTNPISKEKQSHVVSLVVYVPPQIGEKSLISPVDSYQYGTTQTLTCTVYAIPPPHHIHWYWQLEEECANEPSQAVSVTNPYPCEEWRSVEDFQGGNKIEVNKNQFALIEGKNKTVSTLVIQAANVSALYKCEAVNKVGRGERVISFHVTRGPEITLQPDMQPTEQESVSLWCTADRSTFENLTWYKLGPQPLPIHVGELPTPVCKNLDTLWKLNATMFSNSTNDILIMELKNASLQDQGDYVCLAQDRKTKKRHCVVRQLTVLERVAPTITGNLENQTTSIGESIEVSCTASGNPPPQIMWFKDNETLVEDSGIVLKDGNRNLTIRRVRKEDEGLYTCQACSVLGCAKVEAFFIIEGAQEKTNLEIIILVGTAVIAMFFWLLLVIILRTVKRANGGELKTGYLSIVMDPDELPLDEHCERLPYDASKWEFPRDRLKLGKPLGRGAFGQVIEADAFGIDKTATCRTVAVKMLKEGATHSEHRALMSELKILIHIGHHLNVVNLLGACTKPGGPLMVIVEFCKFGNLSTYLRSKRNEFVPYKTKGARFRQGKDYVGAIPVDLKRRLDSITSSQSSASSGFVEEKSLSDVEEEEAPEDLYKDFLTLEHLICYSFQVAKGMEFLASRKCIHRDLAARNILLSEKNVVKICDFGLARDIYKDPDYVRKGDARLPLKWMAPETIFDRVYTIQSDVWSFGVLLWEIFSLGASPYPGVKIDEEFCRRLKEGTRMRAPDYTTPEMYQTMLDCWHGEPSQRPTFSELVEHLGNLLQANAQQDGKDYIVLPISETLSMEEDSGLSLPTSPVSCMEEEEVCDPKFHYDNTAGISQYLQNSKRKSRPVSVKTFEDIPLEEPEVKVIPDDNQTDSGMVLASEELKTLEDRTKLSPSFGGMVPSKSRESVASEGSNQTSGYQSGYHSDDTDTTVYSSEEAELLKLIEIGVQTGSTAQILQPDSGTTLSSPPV
T5 sequence (P00533 25-1210 T790M/L858R): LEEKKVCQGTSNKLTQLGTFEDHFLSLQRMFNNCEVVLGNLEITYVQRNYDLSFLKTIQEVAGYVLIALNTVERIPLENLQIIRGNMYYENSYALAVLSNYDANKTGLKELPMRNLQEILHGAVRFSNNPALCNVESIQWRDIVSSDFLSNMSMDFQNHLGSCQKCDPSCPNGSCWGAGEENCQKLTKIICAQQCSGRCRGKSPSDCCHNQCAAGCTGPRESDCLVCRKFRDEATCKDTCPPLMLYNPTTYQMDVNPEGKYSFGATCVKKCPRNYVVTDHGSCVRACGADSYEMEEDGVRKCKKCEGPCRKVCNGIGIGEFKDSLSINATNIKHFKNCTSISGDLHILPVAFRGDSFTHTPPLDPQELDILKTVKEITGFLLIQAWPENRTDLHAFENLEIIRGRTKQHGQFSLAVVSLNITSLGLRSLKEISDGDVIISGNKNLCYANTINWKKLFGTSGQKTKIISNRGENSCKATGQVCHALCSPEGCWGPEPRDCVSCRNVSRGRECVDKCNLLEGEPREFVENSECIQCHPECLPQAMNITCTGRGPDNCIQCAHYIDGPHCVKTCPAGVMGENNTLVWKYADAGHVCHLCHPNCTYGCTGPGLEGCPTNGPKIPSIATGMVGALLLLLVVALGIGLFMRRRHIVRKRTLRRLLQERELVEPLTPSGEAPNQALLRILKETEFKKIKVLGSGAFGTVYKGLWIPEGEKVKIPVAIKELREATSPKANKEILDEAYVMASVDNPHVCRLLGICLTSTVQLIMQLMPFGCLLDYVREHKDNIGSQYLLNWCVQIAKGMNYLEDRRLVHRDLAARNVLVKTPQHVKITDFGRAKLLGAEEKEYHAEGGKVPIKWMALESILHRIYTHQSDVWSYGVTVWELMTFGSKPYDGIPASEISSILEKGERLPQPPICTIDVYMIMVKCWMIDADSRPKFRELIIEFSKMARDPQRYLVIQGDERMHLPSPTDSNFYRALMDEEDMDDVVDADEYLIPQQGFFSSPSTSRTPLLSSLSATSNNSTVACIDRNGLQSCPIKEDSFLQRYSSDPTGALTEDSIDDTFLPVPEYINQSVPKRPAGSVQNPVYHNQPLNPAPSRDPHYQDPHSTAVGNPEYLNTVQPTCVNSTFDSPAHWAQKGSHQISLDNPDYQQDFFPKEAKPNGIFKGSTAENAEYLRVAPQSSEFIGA

SMILES	IC50 (Flt3 (D835Y) (h)) [nM]	activity at 1 µM (Flt3 (D835Y) (h)) [%]	IC50 (KDR (h)) [nM]	activity at 1 µM (Ab1 (h)) [%]	IC50 (Ret (h)) [nM]	IC50 (EGFR (T790M, L858R) (h)) [nM]	IC50 [1] [nM]	IC50 (MM1S Human myeloma cells) [nM]	IC50 [2] [nM]	IC50 [3] [nM]	IC50 (U266 Human myeloma cells) [nM]	IC50 [4] [nM]	IC50 [5] [nM]	IC50 [6] [nM]	IC50 (Ab1 (h)) [nM]
O=C(/C=C/CN1CCOCC1)Nc1cc2cc(c1)Nc1nccc(n1)-c1cccc(c1)COC/C=C/COC2 [XVI-3]	5	1	21	8	145	21	87	379	1180	2480	2700	866	2040	2760	
C/C=C/C(=O)Nc1cc2cc(c1)Nc1nccc(n1)-c1cccc(c1)COC/C=C/COC2 [XVI-4]	10	-1		11	314	60									
O=C(/C=C/C(=O)N1CCOCC1)Nc1cc2cc(c1)Nc1nccc(n1)-c1cccc(c1)COC/C=C/COC2 [XVI-10]	4	5	40	9											139
O=C(/C=C/C(=O)N1CCNCC1)Nc1cc2cc(c1)Nc1nccc(n1)-c1cccc(c1)COC/C=C/COC2 [XVI-11]	6	1	189	-1											34
C1=C/COCc2cccc(c2)-c2ccnc(n2)Nc2cc(cc(OC/C=C/CN3CCCC3)c2)COC/1 [XVI-12]	3	7													
C#CC(=O)Nc1cc2cc(c1)Nc1nccc(n1)-c1cccc(c1)COC/C=C/COC2 [XVII-1]	7	-1		1	110	39									

Further lines, results first:

IC50 (Flt3 (D835Y) (h)) [nM]	activity at 1 µM (Flt3 (D835Y) (h)) [%]	IC50 (KDR (h)) [nM]	activity at 1 µM (Ab1 (h)) [%]	IC50 (Ret (h)) [nM]	IC50 (EGFR (T790M, L858R) (h)) [nM]	IC50 [1] [nM]	IC50 (MM1S Human myeloma cells) [nM]	IC50 [2] [nM]	IC50 [3] [nM]	IC50 (U266 Human myeloma cells) [nM]	IC50 [4] [nM]	IC50 [5] [nM]	IC50 [6] [nM]	IC50 (Ab1 (h)) [nM]	SMILES
9	-1	50	11	123	19										Nc1cc2cc(c1)Nc1nccc(n1)-c1cccc(c1)COC/C=C/COC2 [XIII-1]
3	-1	17	-1	66	10	30	92	133	689	614	326	463	573		O=C(/C=C/CN1CCCC1)Nc1cc2cc(c1)Nc1nccc(n1)-c1cccc(c1)COC/C=C/COC2 [XVI-1]
10	-1	61	17	202	64										C=CC(=O)Nc1cc2cc(c1)Nc1nccc(n1)-c1cccc(c1)COC/C=C/COC2 [XVI-6]
9	-2	97	4	79	17										CN(C)C/C=C/C(=O)Nc1cc2cc(c1)Nc1nccc(n1)-c1cccc(c1)COC/C=C/COC2 [XVI-8]
5	1														O=C(O)/C=C/C(=O)Nc1cc2cc(c1)Nc1nccc(n1)-c1cccc(c1)COC/C=C/COC2 [XVI-9]
17	0	329	32	594	164										CN(C)C/C=C/C(=O)Nc1cc2cc(c1)Nc1nccc(n1)-c1cccc(c1)COC/C=C/CN(C)C2 [XVI-26]
20	1	76	37	1980	300										C/C=C/C(=O)Nc1cc2cc(c1)Nc1nccc(n1)-c1cccc(c1)COC/C=C/CN(C)C2 [XVI-28]
